Reference: article PMC3856129, “Cytotoxicity and Genotoxicity Evaluation of Organochalcogens in Human Leucocytes: A Comparative Study between Ebselen, Diphenyl Diselenide, and Diphenyl Ditelluride” (BioMed Research International, 2013)

Assays:
human leucocytes [1] = experiment: Comet Assay (DNA damage index); type: cell-based; details: 3 hours at 37°C, compared to the control group
Description: (§1) 2 mL of dextran 5% (dissolved in Phosphate Buffer Saline 1%) was added to 8 mL of blood. The tube was gently mixed and left to stand at room temperature for 45 min. Afterwards, the supernatant was centrifuged (480 ×g, 10 min) and plasma was discarded. The pellet was washed with erythrocyte lysis solution (NH4Cl 150 mM; NaHCO3 10 mM; EDTA 1 mM) and centrifuged (480 ×g, 2 min). The supernatant was discarded and the pellet was washed twice with 1 mL erythrocyte lysis solution. After the second centrifugation, the pellet was suspended in 2 mL Hank's buffer solution (KCl 5.4 mM; Na2HPO4 0.3 mM; KH2PO4 0.4 mM; NaHCO3 4.2 mM; MgCl2 0.5 mM; NaCl 122.6 mM; D-glicose 10 mM, Tris-HCl 10 mM; CaCl2 1.3 mM; pH 7.4). The concentration of leucocytes was adjusted to 2000 cells/μL.
(§2) Leucocytes were exposed to ebselen, (PhSe)2, and (PhTe)2 at 5, 10, and 50 μM or an equal volume of DMSO (final concentration of 0.5%) during 3 hours at 37°C. Positive control group was treated with hydrogen peroxide (H2O2) 2 mM and sodium azide 1 mM.
Comet Assay was performed according to Collins with some modifications. After three hours of incubation, 15 μL of the sample was mixed with 90 μL of low-melting point agarose 0.75% and placed in a slide precoated with agarose 1%. A coverslip was added and the samples were left to solidify at 4°C. The coverslips were removed and the slides were placed on a lysis solution (NaCl 2.5 M; EDTA 100 mM; Tris-HCl 8 mM; Triton X-100 1%; pH 10–10.5) during 24 hours at 4°C. Afterwards, the slides were incubated in an electrophoresis solution (NaOH 300 mM; EDTA 1 mM; pH 13.5) for 20 minutes at 4°C and the electrophoresis was performed (25 V; 300 mA; 7 W) for 20 minutes. All the steps were performed in the dark until this moment. After electrophoresis, the slides were washed in a neutralizing solution (Tris-HCl 400 mM; pH 7.5) three times, washed with distilled water, and left to dry. The slides were rehydrated and fixed (Trichloroacetic acid 15%; ZnSO4 5%; glycerol 5%), washed three with distilled water, and left to dry. Afterwards, the rehydrated slides were stained (Na2CO3 5%; NH4NO3 0.1%; AgNO3 0.1%; H4[W12SiO40] 0.25%; formaldehyde 0.15%). The slides were immersed in acetic acid 1%, washed, and left to dry.
One hundred cells randomly selected were analyzed in each sample according to tail size and intensity in five classes. The damage score for each cell can range between 0 (no damage) and 4 (maximum damage), according to Figure 1. Damage index (DI) was defined as follows: DI = 1n1 + 2n2 + 3n3 + 4n4, where n1 represents the number of cells with damage level 1, n2 represents the number of cells with damage level 2, n3 represents the number of cells with damage level 3, and n4 represents the number of cells with damage level 4. At least two different individuals analyzed the slides under blind conditions.

human leucocytes [2] = experiment: Trypan's Blue exclusion test (cell viability); type: cell-based; details: for decrease in leucocyte viability: 50 μM; for effect on cell viability at lower concentrations: 5 and 10 μM
Description: as §1, §2
Trypan's Blue exclusion test was performed according to Mischel and Shiingi. After 3 hours of incubation, 50 μL of Trypan's Blue 0.4% was mixed with 50 μL of leucocytes and left to stand at room temperature for 5 minutes. Cell viability was determined microscopically (400x magnification) and expressed as number of viable cells divided by the total number of cells multiplied by 100.

[3] = 3 hours at 37°C, compared to the control groups

SMILES	damage index (DI) of DNA (human leucocytes [1]; 50 μM)	damage index (DI) of DNA (human leucocytes [1]; 5 and 10 μM)	decrease in leucocyte viability (human leucocytes [2]; [3])	effect on cell viability at lower concentrations (human leucocytes [2]; 3 hours at 37°C)	decrease in leucocyte viability (human leucocytes [2]; human, 3 h, pH 7.4)
c1ccc([Se][Se]c2ccccc2)cc1 [(PhSe)2, Diphenyl Diselenide]	significant increase in DI	did not cause DNA damage	about 20%	did not cause significant decrease in cell viability	–
c1ccc([Te][Te]c2ccccc2)cc1 [(PhTe)2, Diphenyl Ditelluride]	significant increase in DI	increased DI	about 25%	did not cause significant decrease in cell viability	–
O=c1c2ccccc2[se]n1-c1ccccc1 [ebselen, Ebselen]	significant increase in DI	did not cause DNA damage	–	–	about 60%
